The molecules below were run against T1, recombinant GSK3β enzyme (human GSK3β) (Homo sapiens, UniProt P49841) (assay: Measurement of GSK3β inhibitory activity). Conditions: glycogen synthase peptide substrate, Kinase Glo luminescence, read-out: IC50 (concentration of test compound needed for 50% inhibition of luminescent intensity), GSK3β inhibitory activity.
T1 construct: FLAG (N); made in house; host or cells: Sf-21 insect cells, recombinant baculovirus (pFASTBAC1 / BAC-TO-BAC)
Format: biochemical
Excerpt: Human GSK3β gene was cloned by a PCR method using a primer set:
prepared using human brain cDNA (Clontech; trade name: QUICK-Clone cDNA) as a template and in reference to the base sequence of GSK3β gene registered in GenBank under Accession Number NM_002093.
PCR was done according to the protocol attached to KOD plus DNA polymerase (Toyo Boseki Kabushiki Kaisha). The obtained PCR product was electrophoresed on agarose gel (1%), and 1.2 kb of DNA fragment including GSK3β gene was collected from the gel and then digested with restriction enzymes EcoR I and Sal I. The restriction enzyme-treated DNA was electrophoresed on agarose gel (1%). The obtained DNA fragment was collected, and ligated to the plasmid pFASTBAC1 (Invitrogen), which had been digested with restriction enzyme EcoR I and Sal I, to produce expression plasmid pFB-GSK3B. The base sequence of insertion fragment was confirmed to find that it corresponded to the objective sequence. In addition, virus stock BAC-GSK3B of recombinant Baculovirus was prepared using BAC-TO-BAC Baculovirus Expression System (Invitrogen).
Sf-21 cells (Invitrogen) were seeded on Sf-900 II SFM medium (Invitrogen)(150 ml) containing 10% fetal calf serum at 1×10^6 cells/ml, and cultured at 27° C. for 24 hr. The virus stock […] obtained above of recombinant Baculovirus was added by 150 μl to the obtained culture medium, and the cells were cultured for another 60 hr. The culture medium was centrifuged (3000 rpm, 10 min) to separate the cells, and the cells were washed once with PBS. The cells were suspended in 10 ml of cell lysis buffer (25 mM HEPES (pH 7.5), 1% Triton X, 130 mM sodium chloride, 1 mM EDTA, 1 mM Dithiothreitol, 25 mM β-glycerophosphate, Protease inhibitor Complete (Boehringer), 1 mM Sodium orthovanadate), treated 4 times using a homogenizer (POLYTRON) at 20000 rpm for 30 sec to disrupt the cells. The disrupted solution of cells was centrifuged (40000 rpm, 45 min.), and GSK3β was purified from the obtained supernatant using Anti-FLAG M2 Affinity Gel (Sigma Ltd.).
10 μl of ATP solution (2.5 μM ATP) was added to the obtained mixture, and the mixture was reacted at room temperature for 30 min. Kinase Glo Reagent (Promega) (50 μl) was added to the reaction solution to stop the reaction. After reaction at room temperature for 10 min, the luminescent intensity was measured using ARVO multilabel counter (PerkinElmer Life Sciences). The concentrations of the test compounds needed for 50% inhibition of luminescent intensity (IC50 value) were calculated by PRISM 3.0 (GraphPad Software).

T1 sequence (P49841 whole entry): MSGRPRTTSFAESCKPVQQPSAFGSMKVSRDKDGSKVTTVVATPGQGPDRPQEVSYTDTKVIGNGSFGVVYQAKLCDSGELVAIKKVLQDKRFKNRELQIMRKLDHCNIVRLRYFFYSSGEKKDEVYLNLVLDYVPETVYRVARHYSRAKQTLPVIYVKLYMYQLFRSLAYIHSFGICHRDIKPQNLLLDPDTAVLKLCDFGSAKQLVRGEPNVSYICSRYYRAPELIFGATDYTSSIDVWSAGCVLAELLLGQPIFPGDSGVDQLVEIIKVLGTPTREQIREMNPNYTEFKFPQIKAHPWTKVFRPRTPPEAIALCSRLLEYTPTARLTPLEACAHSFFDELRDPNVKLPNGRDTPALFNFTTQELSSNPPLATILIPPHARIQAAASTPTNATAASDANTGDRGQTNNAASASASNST

| Compound | IC50 [nM] |
| --- | --- |
| COc1ccccc1CC(=O)Nc1c[nH]nc1C(=O)NCCc1ccccc1 [Example 129, 4-{[(2-methoxyphenyl)acetyl]amino}-N-(2-phenylethyl)-1H-pyrazole-3-carboxamide] | 157 |
| Cc1cccc(C(=O)Nc2c[nH]nc2C(=O)NCC(F)(F)F)n1 [Example 389, 6-methyl-N-(3-(((2,2,2-trifluoroethyl)amino)carbonyl)-1H-pyrazol-4-yl)pyridine-2-carboxamide] | < 100 |
| CC(=O)Nc1cccc(C(=O)Nc2c[nH]nc2C(=O)NCc2ccccc2)c1 [Example 116, 4-{[3-(acetylamino)benzoyl]amino}-N-benzyl-1H-pyrazole-3-carboxamide] | < 100 |
| O=C(Nc1c[nH]nc1C(=O)NCCCc1ccccc1)c1ccccn1 [Example 342, N-(3-(((3-phenylpropyl)amino)carbonyl)-1H-pyrazol-4-yl)pyridine-2-carboxamide] | < 100 |
| O=C(Nc1c[nH]nc1C(=O)NCCOc1ccccc1)c1ccccn1 [Example 355, N-(3-(((2-phenoxyethyl)amino)carbonyl)-1H-pyrazol-4-yl)pyridine-2-carboxamide] | < 100 |
| O=C(/C=C/c1ccccc1)Nc1c[nH]nc1C(=O)NCCc1ccccc1 [Example 127, N-(2-phenylethyl)-4-{[(2E)-3-phenylprop-2-enoyl]amino}-1H-pyrazole-3-carboxamide] | < 100 |
| CC(=O)Nc1cccc(C(=O)Nc2c[nH]nc2C(=O)NCC(F)(F)F)c1 [Example 375, 4-((3-(acetylamino)benzoyl)amino)-N-(2,2,2-trifluoroethyl)-1H-pyrazole-3-carboxamide] | < 100 |
| O=C(Nc1c[nH]nc1C(=O)NCc1ccccc1)c1ccccc1 [Example 109, 4-(benzoylamino)-N-benzyl-1H-pyrazole-3-carboxamide] | < 100 |
| CC(=O)Nc1cccc(C(=O)Nc2c[nH]nc2C(=O)NCCSc2ccccc2)c1 [Example 376, 4-((3-(acetylamino)benzoyl)amino)-N-(2-(phenylthio)ethyl)-1H-pyrazole-3-carboxamide] | < 100 |
| O=C(Nc1c[nH]nc1C(=O)NC1CCCC1)c1ccccn1 [Example 344, N-(3-((cyclopentylamino)carbonyl)-1H-pyrazol-4-yl)pyridine-2-carboxamide] | < 100 |
| O=C(NC1CCCC1)c1n[nH]cc1NC(=O)c1c(F)cccc1F [Example 366, N-cyclopentyl-4-((2,6-difluorobenzoyl)amino)-1H-pyrazole-3-carboxamide] | < 100 |
| N#Cc1ccc(NCCNC(=O)c2n[nH]cc2NC(=O)c2ccccn2)nc1 [Example 350] | < 100 |
| CC(C)(C)C(=O)Nc1c[nH]nc1C(=O)NCCC#N [Example 415, N-(2-cyanoethyl)-4-(2,2-dimethylpropanoylamino)-1H-pyrazole-3-carboxamide] | < 100 |
| COc1cccc(C(=O)Nc2c[nH]nc2C(=O)NCCC#N)c1 [Example 414, N-(2-cyanoethyl)-4-(3-methoxybenzoylamino)-1H-pyrazole-3-carboxamide] | < 100 |
| O=C(Nc1c[nH]nc1C(=O)NCCC(F)(F)F)c1ccccn1 [Example 393, N-(3-(((3,3,3-trifluoropropyl)amino)carbonyl)-1H-pyrazol-4-yl)pyridine-2-carboxamide] | < 100 |
| O=C(Nc1c[nH]nc1C(=O)NCCc1ccc(Br)cc1)c1ccccn1 [Example 351, N-(3-(((2-(4-bromophenyl)ethyl)amino)carbonyl)-1H-pyrazol-4-yl)pyridine-2-carboxamide] | < 100 |
| CC(=O)Nc1cccc(C(=O)Nc2c[nH]nc2C(=O)NCCCOC(C)C)c1 [Example 385, 4-((3-(acetylamino)benzoyl)amino)-N-(3-isopropoxypropyl)-1H-pyrazole-3-carboxamide] | < 100 |
| CCC(CC)C(=O)Nc1c[nH]nc1C(=O)NC1CCCC1 [Example 368, N-cyclopentyl-4-((2-ethylbutanoyl)amino)-1H-pyrazole-3-carboxamide] | < 100 |
| N#CCNC(=O)c1n[nH]cc1NC(=O)c1ccccn1 [Example 395, N-(3-(((cyanomethyl)amino)carbonyl)-1H-pyrazol-4-yl)pyridine-2-carboxamide] | < 100 |
| CC(=O)Nc1cccc(C(=O)Nc2c[nH]nc2C(=O)NCCS(C)(=O)=O)c1 [Example 382, 4-((3-(acetylamino)benzoyl)amino)-N-(2-(methylsulfonyl)ethyl)-1H-pyrazole-3-carboxamide] | < 100 |
| O=C(Nc1c[nH]nc1C(=O)Nc1cccc(C(F)(F)F)c1)c1ccccn1 [Example 343, N-(3-(((3-(trifluoromethyl)phenyl)amino)carbonyl)-1H-pyrazol-4-yl)pyridine-2-carboxamide] | < 100 |
| O=C(Nc1c[nH]nc1C(=O)NCc1ccccc1)c1cnccn1 [Example 119, N-{3-[(benzylamino)carbonyl]-1H-pyrazol-4-yl}pyrazine-2-carboxamide] | < 100 |
| CC(C)NC(=O)c1n[nH]cc1NC(=O)c1ccccn1 [Example 345, N-(3-((isopropylamino)carbonyl)-1H-pyrazol-4-yl)pyridine-2-carboxamide] | < 100 |
| O=C(Nc1c[nH]nc1C(=O)NCCc1ccccc1)c1ccccn1 [Example 338, N-(3-(((2-phenylethyl)amino)carbonyl)-1H-pyrazol-4-yl)pyridine-2-carboxamide] | < 100 |
| O=C(NC1CCCC1)c1n[nH]cc1NC(=O)C1CCCC1 [Example 367, N-cyclopentyl-4-(cyclopentanecarbonylamino)-1H-pyrazole-3-carboxamide] | < 100 |
| CCOCC(=O)Nc1c[nH]nc1C(=O)NC(C)C [compound 021] | < 100 |
| O=C(CC1CCCC1)Nc1c[nH]nc1C(=O)NCCc1ccccc1 [Example 121, 4-[(cyclopentylacetyl)amino]-N-(2-phenylethyl)-1H-pyrazole-3-carboxamide] | < 100 |
| O=C(Nc1c[nH]nc1C(=O)NCCc1cccnc1)c1ccccn1 [Example 352, N-(3-(((2-pyridin-3-ylethyl)amino)carbonyl)-1H-pyrazol-4-yl)pyridine-2-carboxamide] | < 100 |
| CNC(=O)c1n[nH]cc1NC(=O)C(c1ccccc1)c1ccccc1 [compound 003] | < 100 |

Further lines, results first:

| IC50 [nM] | Compound |
| --- | --- |
| < 100 | O=C(Nc1c[nH]nc1C(=O)NCc1ccco1)c1ccc2[nH]ccc2c1 [compound 161] |
| < 100 | O=C(Nc1c[nH]nc1C(=O)NC1CCCC1)c1ccc(F)cc1F [compound 073] |
| 102 | O=C(CC1CCCC1)Nc1c[nH]nc1C(=O)NCc1ccccc1 [compound 099] |
| 115 | O=C(CCc1ccccc1)Nc1c[nH]nc1C(=O)Nc1ccccc1 [compound 087] |
| < 100 | O=C(Nc1c[nH]nc1C(=O)NC1CCCC1)c1ccc(OC(F)(F)F)cc1 [compound 076] |
| < 100 | CC(C)NC(=O)c1n[nH]cc1NC(=O)/C=C/c1ccccc1 [compound 023] |
| 245 | COc1ccccc1CC(=O)Nc1c[nH]nc1C(=O)NC(C)C [compound 025] |
| 274 | CS(=O)(=O)Nc1c[nH]nc1C(=O)NC1CCCC1 [compound 227, N-cyclopentyl-4-methanesulfonylamino-1H-pyrzole-3-carboxamide] |
| 140 | O=C(Nc1c[nH]nc1C(=O)NCc1ccco1)c1ccc(Oc2ccccc2)cc1 [compound 157] |
| < 100 | CC(=O)Nc1cccc(C(=O)Nc2c[nH]nc2C(=O)NCc2ccco2)c1 [compound 159] |
| < 100 | O=C(Nc1ccccc1)c1n[nH]cc1NC(=O)C1CCCCC1 [compound 084] |
| 269 | O=C(/C=C/c1ccccc1)Nc1c[nH]nc1C(=O)N1CCCC1 [compound 045] |
| 106 | O=C(CC1CCCC1)Nc1c[nH]nc1C(=O)Nc1ccccc1 [compound 081] |
| < 100 | O=C(Nc1c[nH]nc1C(=O)NC1CCCC1)c1ccccc1 [compound 070] |
| < 100 | O=C(NC1CCCC1)c1n[nH]cc1NC(=O)C1CCCCC1 [compound 063] |
| < 100 | O=C(CCc1ccccc1)Nc1c[nH]nc1C(=O)NC1CCCC1 [compound 067] |
| < 100 | O=C(Nc1c[nH]nc1C(=O)NCc1ccco1)c1cnccn1 [compound 162] |
| < 100 | O=C(COc1ccccc1)Nc1c[nH]nc1C(=O)Nc1ccccc1 [compound 083] |

Reference: patent US20090156582A1, “Pyrazole Compound” (priority 2005, published 2009)
